The results in this text go back to US8404684B2, “Inhibitors of phosphatidylinositol 3-kinase” (Novartis AG, priority 2003, dated 2013).

The target of the assay is T1, recombinant GST-p110γ (human PI3Kγ, residues 38-1102) (Homo sapiens, UniProt P48736).
T1 construct: Residues 38-1102 of human PI3Kγ are subcloned into the BamH1 and EcoR1 sites; made in house; host or cells: Sf9 (Spodoptera frugiperda) insect cells, baculovirus
T1 sequence (P48736 38-1102): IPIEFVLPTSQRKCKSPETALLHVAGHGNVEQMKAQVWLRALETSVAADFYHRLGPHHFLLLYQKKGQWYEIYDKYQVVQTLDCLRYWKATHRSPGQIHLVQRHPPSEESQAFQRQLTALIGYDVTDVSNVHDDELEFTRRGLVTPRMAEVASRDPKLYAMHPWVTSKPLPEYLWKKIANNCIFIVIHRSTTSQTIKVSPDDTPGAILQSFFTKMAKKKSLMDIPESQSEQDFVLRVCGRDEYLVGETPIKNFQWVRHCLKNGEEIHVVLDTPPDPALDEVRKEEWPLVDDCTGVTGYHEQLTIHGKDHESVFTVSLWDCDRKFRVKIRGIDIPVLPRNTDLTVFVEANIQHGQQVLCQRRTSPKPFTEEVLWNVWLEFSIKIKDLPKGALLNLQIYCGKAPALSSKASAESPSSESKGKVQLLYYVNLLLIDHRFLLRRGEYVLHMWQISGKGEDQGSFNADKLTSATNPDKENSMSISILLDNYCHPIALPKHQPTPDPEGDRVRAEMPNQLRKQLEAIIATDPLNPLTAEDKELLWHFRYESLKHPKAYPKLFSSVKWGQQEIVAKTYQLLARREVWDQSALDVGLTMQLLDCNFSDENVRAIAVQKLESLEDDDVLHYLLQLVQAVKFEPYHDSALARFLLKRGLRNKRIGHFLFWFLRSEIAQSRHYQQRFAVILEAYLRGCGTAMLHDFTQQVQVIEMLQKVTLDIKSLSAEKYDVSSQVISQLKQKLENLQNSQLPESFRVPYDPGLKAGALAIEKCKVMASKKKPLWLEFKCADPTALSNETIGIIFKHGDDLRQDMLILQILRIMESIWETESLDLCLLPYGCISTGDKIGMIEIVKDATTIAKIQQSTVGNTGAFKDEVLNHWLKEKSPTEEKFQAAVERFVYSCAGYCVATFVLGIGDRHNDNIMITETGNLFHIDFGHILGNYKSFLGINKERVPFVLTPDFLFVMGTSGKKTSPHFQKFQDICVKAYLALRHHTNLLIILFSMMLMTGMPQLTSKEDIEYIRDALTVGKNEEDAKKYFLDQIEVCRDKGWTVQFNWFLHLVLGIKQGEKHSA
Kind of assay: PI3Kγ in vitro kinase assay (Scintillation Proximity Assay), transfer of terminal phosphate of ATP to phosphatidylinositol. In kind it is biochemical. To be noted: 12.5 μM ATP, 15 μg/ml phosphatidylinositol, 60 minutes at room temperature. The source says:
Baculovirus expressing different fragments of PI3Kγ fused to GST have been previously described by Stoyanova, S., Bulgarelli-Leva, G., Kirsch, C., Hanck, T., Klinger, R., Wetzker, R., Wymann, M. P. (1997) Lipid- and protein kinase activities of G protein-coupled PI 3-kinase g: structure-activity analysis and interactions with wortmannin. Biochem. J., 324:489. Residues 38-1102 of human PI3Kγ are subcloned into the BamH1 and EcoR1 sites of the transfer vector pAcG2T (Pharmingen) to create a GST-PI3Kγ lacking the first 37 residues of PI3Kγ. To express the recombinant protein, Sf9 (Spodoptera frugiperda 9) insect cells are routinely maintained at densities between 3×10^5 and 3×10^6 cells/ml in serum containing TNMFH medium (Sigma). Sf9 cells, at a density of 2×10^6 are infected with human GST-PI3KγΔ34 baculovirus at a multiplicity of infection (m.o.i.) of 1 for 72 hours. The infected cells are harvested by centrifugation at 1400 g for 4 minutes at 4° C. and the cell pellets are frozen at −80° C. Both Sf9 and Sf21 cells work equally well. Sf9 cells (1×10^9) are resuspended in 100 ml cold (4° C.) lysis buffer (50 mM Tris-HCl pH 7.5, 1% Triton X-100, 150 mM NaCl, 1 mM NaF, 2 mM DTT and protease inhibitors. Cells are incubated on ice for 30 minutes then centrifuged at 15000 g for 20 minutes at 4° C. Purification of the supernatant sample is carried out at 4° C. by affinity chromatography using SEPHAROSE™ agarose gel beads coupled to glutathione (from Amersham Pharmacia Biotech). A cell lysate/GST resin ratio of 50:1 is used. The GST resin is firstly pre-rinsed to remove ethanol preservative and then equilibrated with lysis buffer. Cell lysate (supernatant) is added (usually as 50 ml lysate to 1 ml GST resin in 50 ml tubes) and gently rotated on a mixer at 4° C. for 2-3 hours. The unbound flow through sample is collected by centrifugation at 1000 g for 5 minutes at 4° C. using a DENLEY™ centrifuge. The 1 ml GST resin containing bound material is transferred to a 15 ml FALCON™ centrifuge tube for subsequent washing and elution steps. Firstly a series of 3 cycles of washings (mixing by gentle inversion) is performed with 15 ml ice cold wash Buffer A (50 mM Tris-HCl pH 7.5, 1% Triton X-100, 2 mM DTT) interspersed with centrifugation at 1000 g for 5 minutes at 4° C. A final single wash step is performed with 15 ml ice cold wash Buffer B (50 mM Tris-HCl pH 7.5, 2 mM DTT) and then centrifuged at 1000 g for 5 minutes at 4° C. The washed GST resin is finally eluted with 4 cycles of 1 ml ice cold elution buffer (50 mM Tris-HCl pH 7.5, 10 mM reduced glutathione, 2 mM DTT, 150 mM NaCl, 1 mM NaF, 50% ethylene glycol and protease inhibitors) interspersed with centrifugation at 1000 g for 5 minutes at 4° C. Samples are aliquoted and stored at −20° C.
An in vitro kinase assay is established that measures the transfer of the terminal phosphate of adenosine triphosphate to phosphatidylinositol. The kinase reaction is performed in a white 96 well microtitre plate as a Scintillation Proximity Assay. Each well contains 10 μl test compound in 5% dimethylsulphoxide and 20 μl assay mix (40 mM Tris, 200 mM NaCl, 2 mM ethyleneglycol-aminoethyl-tetraacetic acid (EGTA), 15 μg/ml phosphatidylinositol, 12.5 μM adenosine triphosphate (ATP), 25 mM MgCl2, 0.1 μCi [^33P]ATP). The reaction is started by the addition of 20 μl of enzyme mix (40 mM Tris, 200 mM NaCl, 2 mM EGTA containing recombinant GST-p110γ). […]
Background: In a scintillation proximity assay essentially only radioactivity close to the scintillant gives light.
By IC50 is commonly meant the point on the concentration scale where inhibition reaches its midpoint. Regarding `Cc1nc(Nc2cnccn2)sc1-c1ccnc(-n2ccnc2)c1` [Example 6, [5-(2-Imidazol-1-yl-pyridin-4-yl)-4-methyl-thiazol-2-yl]-pyrazin-2-yl-amine], the IC50 amounted to 165 nM.
For the compound `COCCNC(=O)Nc1nc(C)c(-c2ccnc(C(C)(C)C)n2)s1` [Example 108, 1-[5-(2-tert-butyl-pyrimidin-4-yl)-4-methyl-thiazol-2-yl]-3-(2-methoxy-ethyl)-urea], the IC50 amounted to 5 nM.
To `Cc1nc(Nc2cnccn2)sc1-c1ccncc1` [Example 1, (4-Methyl-5-pyridin-4-yl-thiazol-2-yl)-pyrazin-2-yl-amine] belongs 75 nM.
To `CCOC(=O)CCNC(=O)Nc1nc(C)c(-c2ccncc2)s1` [Example 17, 3-[3-(4-Methyl-5-pyridin-4-yl-thiazol-2-yl)-ureido]-propionic acid ethyl ester] belongs 106 nM; to `CC(=O)Nc1nc(C)c(-c2ccnc(C3CC3)n2)s1` [Example 27, N-[5-(2-Cyclopropyl-pyrimidin-4-yl)-4-methyl-thiazol-2-yl]-acetamide], 17 nM; to `Cc1nc(NC(=O)NCc2cccn2C)sc1-c1ccncc1` [Example 22, 1-(4-methyl-5-pyridin-4-yl-thiazol-2-yl)-3-(1-methyl-1H-pyrrol-2-ylmethyl)-urea], 50 nM.
To `Cc1nc(N)sc1-c1ccnc(C(C)(C)C)n1` [Example 91, 5-(2-tert-Butyl-pyrimidin-4-yl)-4-methyl-thiazol-2-ylamine] belongs 25 nM; to `Cc1nc(NC(=O)NCCC(=O)OC(C)(C)C)sc1-c1ccnc(C2CC2)n1` [Example 82, 3-{3-[5-(2-cyclopropyl-pyrimidin-4-yl)-4-methyl-thiazol-2-yl]-ureido}-propionic acid tert-butyl ester], 164 nM.
As for “2-{3-[5-(2-methanesulfinyl-6-methyl-pyrimidin-4-yl)-4-methyl-thiazol-2-yl]-ureido}-N,N-dimethyl-acetamide [Example 67]”, the 50% inhibitory concentration (IC50) worked out at 16 nM.
Turning to `CCOCCNC(=O)Nc1nc(C)c(-c2ccnc(C(C)(C)C)n2)s1` [Example 120, 1-[5-(2-tert-butyl-pyrimidin-4-yl)-4-methyl-thiazol-2-yl]-3-(2-ethoxy-ethyl)-urea], the IC50 came to 8 nM.
Turning to `CCc1cnc(CCNC(=O)Nc2nc(C)c(-c3cc(C)nc(OC)n3)s2)o1` [Example 56, 1-[2-(5-Ethyl-oxazol-2-yl)-ethyl]-3-[5-(2-methoxy-6-methyl-pyrimidin-4-yl)-4-methyl-thiazol-2-yl]-urea], the half-maximal inhibitory concentration (IC50) came out at 127 nM.
`Cc1nc(Nc2cc[nH]n2)sc1-c1ccnc(N2CCOCC2)c1` [Example 11, [4-Methyl-5-(2-morpholin-4-yl-pyridin-4-yl)-thiazol-2-yl]-(1H-pyrazol-3-yl)-amine]: the IC50 is 93 nM.
To `CCc1cnc(CCNC(=O)Nc2nc(C)c(-c3ccnc(Cl)c3)s2)o1` [Example 33, 1-[5-(2-chloro-pyridin-4-yl)-4-methyl-thiazol-2-yl]-3-[2-(5-ethyl-oxazol-2-yl)-ethyl]-urea] belongs 73 nM.
